Source: patent publication US20120201802A1, “METHOD FOR PRODUCING REDUCED COENZYME Q10, METHOD FOR STABILIZING SAME, AND COMPOSITION COMPRISING SAME” (Keneka Corporation, priority 2009, published 2012)

Experiments:
[1] = Reduction of oxidized coenzyme Q10 in limonene (Example 2, Comparative Example 2); conditions: after reaction, oxidized CoQ10 0.1 g + plant extract 1.0 g or compound 0.69 mmol, 85° C., 16 hr, nitrogen atmosphere
Protocol: While the present invention is explained in more detail in the following by referring to Examples, the present invention is not limited to those Examples alone. Moreover, the purity of reduced coenzyme Q10, the weight ratio of reduced coenzyme Q10/oxidized coenzyme Q10, and the like in the Examples were measured by the following HPLC analysis. […] To conveniently indicate the weight ratio of reduced coenzyme Q10 and oxidized coenzyme Q10 in the present Example, the ratio of reduced coenzyme Q10 to the total amount of coenzyme Q10 (total amount of oxidized coenzyme Q10 and reduced coenzyme Q10) is shown in percentage as a “weight ratio of reduced coenzyme Q10”. For example, “the weight ratio of reduced coenzyme Q10 is 20%” means that the weight ratio of reduced coenzyme Q10 and oxidized coenzyme Q10 is 20/80. • (HPLC analysis conditions) • column; SYMMETRY C18 (manufactured by Waters) 250 mm (length) 4.6 mm (inner diameter), • mobile phase; C2H5OH:CH3OH=4:3 (v:v), • detection wavelength; 210 nm, • flow rate; 1 ml/min, • retention time of reduced coenzyme Q10; 9.1 min, • retention time of oxidized coenzyme Q10; 13.3 min. […]

[2] = Reduction of oxidized coenzyme Q10 in Span 80/glycerol/Tween 80/MCT mixture (Example 3, Comparative Example 3); conditions: after reaction, oxidized CoQ10 0.1 g + plant extract 1.0 g or compound 0.69 mmol, 80° C., 16 hr, nitrogen atmosphere
Protocol: (§1) While the present invention is explained in more detail in the following by referring to Examples, the present invention is not limited to those Examples alone. Moreover, the purity of reduced coenzyme Q10, the weight ratio of reduced coenzyme Q10/oxidized coenzyme Q10, and the like in the Examples were measured by the following HPLC analysis. […] To conveniently indicate the weight ratio of reduced coenzyme Q10 and oxidized coenzyme Q10 in the present Example, the ratio of reduced coenzyme Q10 to the total amount of coenzyme Q10 (total amount of oxidized coenzyme Q10 and reduced coenzyme Q10) is shown in percentage as a “weight ratio of reduced coenzyme Q10”. For example, “the weight ratio of reduced coenzyme Q10 is 20%” means that the weight ratio of reduced coenzyme Q10 and oxidized coenzyme Q10 is 20/80. • (HPLC analysis conditions) • column; SYMMETRY C18 (manufactured by Waters) 250 mm (length) 4.6 mm (inner diameter), • mobile phase; C2H5OH:CH3OH=4:3 (v:v), • detection wavelength; 210 nm, • flow rate; 1 ml/min, • retention time of reduced coenzyme Q10; 9.1 min, • retention time of oxidized coenzyme Q10; 13.3 min.
Oxidized coenzyme Q10 crystal (0.1 g) and a component derived from a naturally-occurring substance described in Table 3 (plant extract, 1.0 g, 10-fold weight) or a compound (0.69 mmol) were respectively added to a mixture of Span 80 (0.12 g), glycerol (0.09 g), Tween 80 (1.49 g) and MCT (0.43 g), and the mixture was stirred at 80° C. for 16 hr under a nitrogen atmosphere.

[3] = Reduction of oxidized coenzyme Q10 in 99% ethanol (Example 1, Comparative Example 1); conditions: after reaction, oxidized CoQ10 0.1 g + plant extract 1.0 g (10-fold weight) or compound 0.69 mmol, 78° C., 16 hr, nitrogen atmosphere
Protocol: as §1
Oxidized coenzyme Q10 crystal (0.1 g) and a component derived from a naturally-occurring substance (plant extract, 1.0 g, 10-fold weight) described in Table 1 were respectively added to 99% ethanol (15 g), and the mixture was stirred at 78° C. for 16 hr under a nitrogen atmosphere.
Oxidized coenzyme Q10 crystal (0.1 g, 0.12 mmol) and the compound described in Table 1 (0.69 mmol) were respectively added to 99% ethanol (15 g), and the mixture was stirred at 78° C. for 16 hr under a nitrogen atmosphere.

weight ratio of reduced coenzyme Q10 [1] [%]	weight ratio of reduced coenzyme Q10 [2] [%]	weight ratio of reduced coenzyme Q10 [3] [%]	Compound
1			O=C(O)CCCC[C@@H](S)CCS [R-dihydrolipoic acid]
	0	0	C[N+](C)(C)CC(O)CC(=O)[O-] (stereo not shown) [carnitine]

Second part, the compound before the results:

Compound	weight ratio of reduced coenzyme Q10 [1] [%]	weight ratio of reduced coenzyme Q10 [2] [%]	weight ratio of reduced coenzyme Q10 [3] [%]
O=C1O[C@H]([C@@H](O)CO)C([O-])=C1O.[Na+] [L-sodium ascorbate]	1		
NC(=O)C1=CN([C@@H]2O[C@H](COP(=O)(O)OP(=O)(O)OC[C@H]3O[C@@H](n4cnc5c(N)ncnc54)[C@H](O)[C@@H]3O)[C@@H](O)[C@H]2O)C=CC1 [NADH]		0	2
CC1=C(/C=C/C(C)=C/C=C/C(C)=C/C=O)C(C)(C)CCC1 [retinal]		3	4
Cc1c(C)c2c(c(C)c1O)CC[C@@](C)(CCC[C@H](C)CCC[C@H](C)CCCC(C)C)O2 [α-tocopherol]		0	
retinol acetate			4
